Measured values: PMC3493566 (2012)
*1 amine or outer side, *2 acyl side, *3 side chain or, on linkers, in order; H or OH if unused. Where a SMILES comes first, the peptide text is derived from it. Bridges are numbered along the chain shown (N, C = ends). Roman numbers before positions name the chains, in order. [ ]: non-standard residue; d: D form. Actinocin(9to1) = Cc1c2oc3c(C)ccc(C(=O)[*:1])c3nc-2c(C(=O)[*:2])c(N)c1=O; NMeV = CN[C@H](C(=O)O)C(C)C; Sar = CNCC(=O)O

How the values were obtained:
[1] = tested on: d(TTTGCAAA) duplex (DNA, duplex) TTTGCAAA; test: UV melting at 260 nm; details: Na+ (20 mM sodium cacodylate); pH 7.3, 4 µM duplex, no spermine; ACTD concentration not stated
[2] = tested on: 5'-biotin-labeled hairpin DNA duplex (DNA, hairpin) AAAGCTTTTGTAAAGCTTT; test: SPR (BIAcore), ka/kd; details: 50 mM NaCl; 20 mM Tris-HCl pH 7.3, no spermine

Tm [1]: 6.3 °C
Ka [2]: 2.48 ± 0.17 × 10^6 M^-1
Compound: Cc1c2oc3c(C)ccc(C(=O)N[C@@H]4C(=O)N[C@H](C(C)C)C(=O)N5CCC[C@H]5C(=O)N(C)CC(=O)N(C)[C@@H](C(C)C)C(=O)O[C@@H]4C)c3nc-2c(C(=O)N[C@@H]2C(=O)N[C@H](C(C)C)C(=O)N3CCC[C@H]3C(=O)N(C)CC(=O)N(C)[C@@H](C(C)C)C(=O)O[C@@H]2C)c(N)c1=O (I: T[dV]P[Sar][NMeV] / II: T[dV]P[Sar][NMeV]; ester I:1-I:C, II:1-II:C; linker I:N-II:N via Actinocin(9to1))
